Patent US20100041089A1, “IMPROVED METHOD FOR DETECTING CHEMICAL […]” (priority 2006, published 2010)

System: yeast genes (expressed mRNA)
Assay: DNA chip measurement of expressed mRNA of yeast genes after culture with a toxic chemical substance
Assay type: cell-based, Saccharomyces cerevisiae S288C
In short: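 Two-hour exposure of growing S. cerevisiae S288C (YPD, 25° C) to a sublethal toxicant preceded RNA isolation. Fluorescent cDNA was hybridized to a whole-genome array; a treated-to-untreated signal ratio of two or more was taken as significant.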

## S=C([S-])NCCNC(=S)[S-].[Zn+2] [(11), Zinc N,N′-ethylenebis(dithiocarbamate)]
Yeast gene YAL053W, cultured two hours with substance
  The level of expressed mRNA in the presence of chemical substance/The level of expressed mRNA in the absence of chemical substance: 2.3
Yeast gene YAR028W, cultured two hours with substance
  The level of expressed mRNA in the presence of chemical substance/The level of expressed mRNA in the absence of chemical substance: 0.9
Yeast gene YBL048W, cultured two hours with substance
  The level of expressed mRNA in the presence of chemical substance/The level of expressed mRNA in the absence of chemical substance: 2.0
Yeast gene YBL107C, cultured two hours with substance
  The level of expressed mRNA in the presence of chemical substance/The level of expressed mRNA in the absence of chemical substance: 2.9
Yeast gene YBR008C (detoxification protein gene)
  The level of expressed mRNA in the presence of chemical substance/The level of expressed mRNA in the absence of chemical substance: 9.4
Yeast gene YBR072W (stress protein genes)
  The level of expressed mRNA in the presence of chemical substance/The level of expressed mRNA in the absence of chemical substance: 6.3
Yeast gene YBR096W, cultured two hours with the chemical substance
  The level of expressed mRNA in the presence of chemical substance/The level of expressed mRNA in the absence of chemical substance: 1.2
Yeast gene YBR269C, cultured two hours with substance
  The level of expressed mRNA in the presence of chemical substance/The level of expressed mRNA in the absence of chemical substance: 1.2
Yeast gene YCR102C, cultured two hours with substance
  The level of expressed mRNA in the presence of chemical substance/The level of expressed mRNA in the absence of chemical substance: 13.5
Yeast gene YDL023C, cultured two hours with the chemical substance
  The level of expressed mRNA in the presence of chemical substance/The level of expressed mRNA in the absence of chemical substance: 3.5
Yeast gene YDL072C, cultured two hours with substance
  The level of expressed mRNA in the presence of chemical substance/The level of expressed mRNA in the absence of chemical substance: 1.4
Yeast gene YDL169C, cultured two hours with substance
  The level of expressed mRNA in the presence of chemical substance/The level of expressed mRNA in the absence of chemical substance: 1.2
Yeast gene YDL204W, cultured two hours with substance
  The level of expressed mRNA in the presence of chemical substance/The level of expressed mRNA in the absence of chemical substance: 3.2
Yeast gene YDL218W, cultured two hours with substance
  The level of expressed mRNA in the presence of chemical substance/The level of expressed mRNA in the absence of chemical substance: 5.7
Yeast gene YDL222C, cultured two hours with substance
  The level of expressed mRNA in the presence of chemical substance/The level of expressed mRNA in the absence of chemical substance: 2.6
Yeast gene YDR031W, cultured two hours with substance
  The level of expressed mRNA in the presence of chemical substance/The level of expressed mRNA in the absence of chemical substance: 1.2
Yeast gene YDR070C, cultured two hours with substance
  The level of expressed mRNA in the presence of chemical substance/The level of expressed mRNA in the absence of chemical substance: 4.1
Yeast gene YDR077W (stress protein genes)
  The level of expressed mRNA in the presence of chemical substance/The level of expressed mRNA in the absence of chemical substance: 6.8
Yeast gene YDR330W, cultured two hours with substance
  The level of expressed mRNA in the presence of chemical substance/The level of expressed mRNA in the absence of chemical substance: 0.9
Yeast gene YDR391C, cultured two hours with substance
  The level of expressed mRNA in the presence of chemical substance/The level of expressed mRNA in the absence of chemical substance: 1.9
Yeast gene YDR411C, cultured two hours with substance
  The level of expressed mRNA in the presence of chemical substance/The level of expressed mRNA in the absence of chemical substance: 1.3
Yeast gene YDR486C, cultured two hours with substance
  The level of expressed mRNA in the presence of chemical substance/The level of expressed mRNA in the absence of chemical substance: 1.4
Yeast gene YDR511W, cultured two hours with substance
  The level of expressed mRNA in the presence of chemical substance/The level of expressed mRNA in the absence of chemical substance: 1.2
Yeast gene YDR533C, cultured two hours with substance
  The level of expressed mRNA in the presence of chemical substance/The level of expressed mRNA in the absence of chemical substance: 7.7
Yeast gene YDR545W, cultured two hours with substance
  The level of expressed mRNA in the presence of chemical substance/The level of expressed mRNA in the absence of chemical substance: 0.7
Yeast gene YEL001C, cultured two hours with substance
  The level of expressed mRNA in the presence of chemical substance/The level of expressed mRNA in the absence of chemical substance: 1.2
Yeast gene YEL033W, cultured two hours with the chemical substance
  The level of expressed mRNA in the presence of chemical substance/The level of expressed mRNA in the absence of chemical substance: 1.2
Yeast gene YER004W, cultured two hours with substance
  The level of expressed mRNA in the presence of chemical substance/The level of expressed mRNA in the absence of chemical substance: 2.2
Yeast gene YER035W, cultured two hours with substance
  The level of expressed mRNA in the presence of chemical substance/The level of expressed mRNA in the absence of chemical substance: 1.4
Yeast gene YER038C, cultured two hours with substance
  The level of expressed mRNA in the presence of chemical substance/The level of expressed mRNA in the absence of chemical substance: 0.6
Yeast gene YER079W, cultured two hours with substance
  The level of expressed mRNA in the presence of chemical substance/The level of expressed mRNA in the absence of chemical substance: 2.1
Yeast gene YER106W, cultured two hours with substance
  The level of expressed mRNA in the presence of chemical substance/The level of expressed mRNA in the absence of chemical substance: 1.0
Yeast gene YER158C, cultured two hours with substance
  The level of expressed mRNA in the presence of chemical substance/The level of expressed mRNA in the absence of chemical substance: 2.3
Yeast gene YER163C, cultured two hours with substance
  The level of expressed mRNA in the presence of chemical substance/The level of expressed mRNA in the absence of chemical substance: 1.6
Yeast gene YER175C, cultured two hours with substance
  The level of expressed mRNA in the presence of chemical substance/The level of expressed mRNA in the absence of chemical substance: 1.1
Yeast gene YFL006W, cultured two hours with substance
  The level of expressed mRNA in the presence of chemical substance/The level of expressed mRNA in the absence of chemical substance: 1.2
Yeast gene YFL010C, cultured two hours with substance
  The level of expressed mRNA in the presence of chemical substance/The level of expressed mRNA in the absence of chemical substance: 1.4
Yeast gene YFL024C, cultured two hours with substance
  The level of expressed mRNA in the presence of chemical substance/The level of expressed mRNA in the absence of chemical substance: 0.6
Yeast gene YFL032W, cultured two hours with substance
  The level of expressed mRNA in the presence of chemical substance/The level of expressed mRNA in the absence of chemical substance: 1.1
Yeast gene YFR015C, cultured for two hours with substance
  The level of expressed mRNA in the presence of chemical substance/The level of expressed mRNA in the absence of chemical substance: 3.9
Yeast gene YGL037C, cultured two hours with substance
  The level of expressed mRNA in the presence of chemical substance/The level of expressed mRNA in the absence of chemical substance: 3.9
Yeast gene YGL047W, cultured two hours with substance
  The level of expressed mRNA in the presence of chemical substance/The level of expressed mRNA in the absence of chemical substance: 1.9
Yeast gene YGL053W, cultured two hours with substance
  The level of expressed mRNA in the presence of chemical substance/The level of expressed mRNA in the absence of chemical substance: 1.3
Yeast gene YGL121C, cultured two hours with substance
  The level of expressed mRNA in the presence of chemical substance/The level of expressed mRNA in the absence of chemical substance: 6.1
Yeast gene YGL136C, cultured two hours with substance
  The level of expressed mRNA in the presence of chemical substance/The level of expressed mRNA in the absence of chemical substance: 1.4
Yeast gene YGR101W, cultured two hours with substance
  The level of expressed mRNA in the presence of chemical substance/The level of expressed mRNA in the absence of chemical substance: 2.0
Yeast gene YGR110W, cultured two hours with substance
  The level of expressed mRNA in the presence of chemical substance/The level of expressed mRNA in the absence of chemical substance: 0.5
Yeast gene YGR130C, cultured two hours with substance
  The level of expressed mRNA in the presence of chemical substance/The level of expressed mRNA in the absence of chemical substance: 0.8
Yeast gene YGR146C, cultured two hours with substance
  The level of expressed mRNA in the presence of chemical substance/The level of expressed mRNA in the absence of chemical substance: 0.9
Yeast gene YGR154C, cultured two hours with substance
  The level of expressed mRNA in the presence of chemical substance/The level of expressed mRNA in the absence of chemical substance: 1.5
Yeast gene YGR221C, cultured two hours with substance
  The level of expressed mRNA in the presence of chemical substance/The level of expressed mRNA in the absence of chemical substance: 0.5
Yeast gene YHR029C, cultured two hours with substance
  The level of expressed mRNA in the presence of chemical substance/The level of expressed mRNA in the absence of chemical substance: 3.8
Yeast gene YHR138C, cultured two hours with substance
  The level of expressed mRNA in the presence of chemical substance/The level of expressed mRNA in the absence of chemical substance: 1.6
Yeast gene YHR199C, cultured two hours with substance
  The level of expressed mRNA in the presence of chemical substance/The level of expressed mRNA in the absence of chemical substance: 1.9
Yeast gene YHR209W, cultured two hours with substance
  The level of expressed mRNA in the presence of chemical substance/The level of expressed mRNA in the absence of chemical substance: 3.3
Yeast gene YIL023C, cultured two hours with substance
  The level of expressed mRNA in the presence of chemical substance/The level of expressed mRNA in the absence of chemical substance: 1.1
Yeast gene YIL024C, cultured two hours with substance
  The level of expressed mRNA in the presence of chemical substance/The level of expressed mRNA in the absence of chemical substance: 0.6
Yeast gene YIL041W, cultured two hours with substance
  The level of expressed mRNA in the presence of chemical substance/The level of expressed mRNA in the absence of chemical substance: 1.4
Yeast gene YIL087C, cultured two hours with substance
  The level of expressed mRNA in the presence of chemical substance/The level of expressed mRNA in the absence of chemical substance: 2.8
Yeast gene YIL117C, cultured two hours with substance
  The level of expressed mRNA in the presence of chemical substance/The level of expressed mRNA in the absence of chemical substance: 1.8
Yeast gene YIL136W, mitochondria-located protein gene
  The level of expressed mRNA in the presence of chemical substance/The level of expressed mRNA in the absence of chemical substance: 4.8
Yeast gene YIR024C
  The level of expressed mRNA in the presence of chemical substance/The level of expressed mRNA in the absence of chemical substance: 6.3
Yeast gene YJL020C, cultured two hours with substance
  The level of expressed mRNA in the presence of chemical substance/The level of expressed mRNA in the absence of chemical substance: 0.6
Yeast gene YJL057C, cultured two hours with substance
  The level of expressed mRNA in the presence of chemical substance/The level of expressed mRNA in the absence of chemical substance: 2.0
Yeast gene YJL066C, cultured two hours with substance
  The level of expressed mRNA in the presence of chemical substance/The level of expressed mRNA in the absence of chemical substance: 0.8
Yeast gene YJL082W, cultured two hours with substance
  The level of expressed mRNA in the presence of chemical substance/The level of expressed mRNA in the absence of chemical substance: 1.0
Yeast gene YJL108C, cultured two hours with substance
  The level of expressed mRNA in the presence of chemical substance/The level of expressed mRNA in the absence of chemical substance: 1.0
Yeast gene YJL144W, cultured two hours with substance
  The level of expressed mRNA in the presence of chemical substance/The level of expressed mRNA in the absence of chemical substance: 3.0
Yeast gene YJL149W, cultured two hours with substance
  The level of expressed mRNA in the presence of chemical substance/The level of expressed mRNA in the absence of chemical substance: 1.5
Yeast gene YJL151C, cultured two hours with substance
  The level of expressed mRNA in the presence of chemical substance/The level of expressed mRNA in the absence of chemical substance: 1.0
Yeast gene YJL152W, cultured two hours with substance
  The level of expressed mRNA in the presence of chemical substance/The level of expressed mRNA in the absence of chemical substance: 1.0
Yeast gene YJL161W, cultured two hours with substance
  The level of expressed mRNA in the presence of chemical substance/The level of expressed mRNA in the absence of chemical substance: 3.7
Yeast gene YJL171C, cultured two hours with substance
  The level of expressed mRNA in the presence of chemical substance/The level of expressed mRNA in the absence of chemical substance: 2.2
Yeast gene YJL186W, cultured two hours with substance
  The level of expressed mRNA in the presence of chemical substance/The level of expressed mRNA in the absence of chemical substance: 0.6
Yeast gene YJR008W, cultured two hours with substance
  The level of expressed mRNA in the presence of chemical substance/The level of expressed mRNA in the absence of chemical substance: 1.4
Yeast gene YJR054W, cultured two hours with substance
  The level of expressed mRNA in the presence of chemical substance/The level of expressed mRNA in the absence of chemical substance: 0.7
Yeast gene YJR085C, cultured two hours with substance
  The level of expressed mRNA in the presence of chemical substance/The level of expressed mRNA in the absence of chemical substance: 2.9
Yeast gene YKL034W, cultured two hours with substance
  The level of expressed mRNA in the presence of chemical substance/The level of expressed mRNA in the absence of chemical substance: 1.2
Yeast gene YKL070W
  The level of expressed mRNA in the presence of chemical substance/The level of expressed mRNA in the absence of chemical substance: 10.4
Yeast gene YKL071W, cultured two hours with substance
  The level of expressed mRNA in the presence of chemical substance/The level of expressed mRNA in the absence of chemical substance: 40.3
